Test results published in patent publication US20070010670A1, “Nitrogen-containing fused ring compounds and use thereof” (Japan Tobacco Inc., priority 2004, published 2007).

Molecular target: T1, CYP2C9 (Homo sapiens, UniProt P11712)
T1 construct: Human liver microsome (20 mg protein/mL, 5 μL, Xenotech LLC, purchased from Lenexa KS); tissue Xenotech LLC; host or cells: human liver microsome
Experiment: CYP inhibitory test using human liver microsome
Format: in vitro ADME
Settings: model substrate diclofenac, 37° C. 10 min, read-out: CYP2C9 inhibition IC50
Experimental: Human liver microsome (20 mg protein/mL, 5 μL, Xenotech LLC, purchased from Lenexa KS) was suspended in 100 mM potassium phosphate buffer (70 μL, pH 7.4), mixed with a solution (0.5 μL) of the Example compound dissolved in DMSO and preincubated at 37° C. for 5 min. NADPH producing system coenzyme solution (β-nicotinamide adenine dinucleotide phosphate: 5.2 mM, D-glucose-6-phosphate: 13.2 mM, magnesium chloride: 13.2 mM, glucose-6-phosphate dehydrogenase: 1.8 U/mL) 25 μL, and a model substrate (CYP3A4: midazolam 1 mM, CYP2D6: bufuralol 1 mM, CYP2C9: diclofenac 2 mM) 0.5 μL dissolved in DMSO were added to start the reaction. After incubation at 37° C. for 10 min., acetonitrile (200 μL) containing an internal standard substance (propranolol 1 μM) was added and the mixture was centrifuged (room temperature, 3000 rpm, 20 min). The amount of the metabolite produced from each model substrate in the supernatant was measured by high performance liquid chromatography/mass spectrometry (LC/MS/MS) and each CYP enzyme activity was determined. The concentration showing 50% inhibition (IC50) was calculated relative to the enzyme activity without addition of Example compound (DMSO 0.5 μL added) as 100%.

T1 sequence (P11712 whole entry): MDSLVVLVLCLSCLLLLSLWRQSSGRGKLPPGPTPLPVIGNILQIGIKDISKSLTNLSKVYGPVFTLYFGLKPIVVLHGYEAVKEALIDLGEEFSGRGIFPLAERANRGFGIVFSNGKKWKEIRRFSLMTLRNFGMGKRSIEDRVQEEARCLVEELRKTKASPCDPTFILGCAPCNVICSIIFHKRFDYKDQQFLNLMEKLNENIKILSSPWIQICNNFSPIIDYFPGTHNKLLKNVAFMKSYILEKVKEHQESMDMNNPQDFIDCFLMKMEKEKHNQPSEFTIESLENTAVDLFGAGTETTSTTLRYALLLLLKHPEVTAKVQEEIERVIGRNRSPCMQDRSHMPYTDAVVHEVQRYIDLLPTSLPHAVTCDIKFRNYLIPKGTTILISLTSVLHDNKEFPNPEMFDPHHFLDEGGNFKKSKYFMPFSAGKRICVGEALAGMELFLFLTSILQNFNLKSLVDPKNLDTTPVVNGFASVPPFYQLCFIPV

First: COc1ccc2c(c1)N(C(=O)c1cc(Cl)c(O)c(Cl)c1)CCO2 [Example 17, (3,5-dichloro-4-hydroxyphenyl)-(6-methoxy-2,3-dihydrobenzo[1,4]oxazin-4-yl)-methanone]
Second: Cc1ccc2c(c1)N(C(=O)c1cc(Cl)c(O)c(Cl)c1)CCO2 [Example 12, (3,5-dichloro-4-hydroxyphenyl)-(6-methyl-2,3-dihydrobenzo[1,4]oxazin-4-yl)-methanone]
The IC50 of the first is 1.5-fold higher: 33 µM for the first, 22 µM for the second. The second is the more potent here.

Compared with `Cc1cccc2c1OCCN2C(=O)c1cc(Cl)c(O)c(Cl)c1` [Example 15, (3,5-dichloro-4-hydroxyphenyl)-(8-methyl-2,3-dihydrobenzo[1,4]oxazin-4-yl)-methanone], `O=C(c1cc(Cl)c(O)c(Cl)c1)N1CCOc2c(O)cccc21` [Example 90, (3,5-dichloro-4-hydroxyphenyl)-(8-hydroxy-2,3-dihydrobenzo[1,4]oxazin-4-yl)-methanone] is 3.5-fold higher in IC50: 6 µM for the first, 21 µM for the second. The first is the more potent here.

First: O=C(c1cc(F)c(O)c(F)c1)N1CCOc2ccccc21 [Example 6, (3,5-difluoro-4-hydroxyphenyl)-(2,3-dihydrobenzo[1,4]oxazin-4-yl)-methanone]
Second: O=C(c1cc(Cl)c(O)c(Cl)c1)N1CCOc2ccccc21 [Example 3, (3,5-dichloro-4-hydroxyphenyl)-(2,3-dihydrobenzo[1,4]oxazin-4-yl)-methanone]
The IC50 of the first is higher: over 50 µM for the first, 27 µM for the second. The second is the more potent here.

Going from `O=C(c1cc(Cl)c(O)c(Cl)c1)N1CCS(=O)(=O)c2ccccc21` [Example 10, (3,5-dichloro-4-hydroxyphenyl)-(1,1-dioxo-2,3-dihydro-1H-1λ^6-benzo[1,4]thiazin-4-yl)-methanone] to `O=C(c1cc(Cl)c(O)c(Cl)c1)N1CCc2ccccc21` [Example 77, (3,5-dichloro-4-hydroxyphenyl)-(2,3-dihydroindol-1-yl)-methanone], the IC50 falls from over 50 µM to 18 µM.

`O=C(c1cc(Cl)c(O)c(Cl)c1)N1CCOc2ccc(CO)cc21` [Example 56, (3,5-dichloro-4-hydroxyphenyl)-(6-hydroxymethyl-2,3-dihydrobenzo[1,4]oxazin-4-yl)-methanone] and `O=C(c1cc(Cl)c(O)c(Cl)c1)N1CCOc2ccc(O)cc21` [Example 19, (3,5-dichloro-4-hydroxyphenyl)-(6-hydroxy-2,3-dihydrobenzo[1,4]oxazin-4-yl)-methanone] cannot be ordered by IC50: over 50 µM for the first, over 50 µM for the second.

Compared with `O=C(c1cc(Cl)c(O)c(Cl)c1)N1CCOc2ccc([N+](=O)[O-])cc21` [Example 67, (3,5-dichloro-4-hydroxyphenyl)-(6-nitro-2,3-dihydrobenzo[1,4]oxazin-4-yl)-methanone], `O=C(c1cc(Cl)c(O)c(Cl)c1)N1CCOc2ccc(Cl)cc21` [Example 51, (6-chloro-2,3-dihydrobenzo[1,4]oxazin-4-yl)-(3,5-dichloro-4-hydroxyphenyl)-methanone] is 3.1-fold lower in IC50: 49 µM for the first, 16 µM for the second.

`O=C(c1cnc(O)c(Cl)c1)N1CCOc2ccccc21` [Example 29, (5-chloro-6-hydroxypyridin-3-yl)-(2,3-dihydrobenzo[1,4]oxazin-4-yl)-methanone] and `O=C(c1ccc(O)c(Cl)c1)N1CCOc2ccccc21` [Example 1, (3-chloro-4-hydroxyphenyl)-(2,3-dihydrobenzo[1,4]oxazin-4-yl)-methanone] cannot be ordered by IC50: over 50 µM for the first, over 50 µM for the second.

Compared with `CC(C)c1cccc2c1OC(C(C)C)CN2C(=O)c1cc(Cl)c(O)c(Cl)c1` (stereo not shown) [Example 32, (3,5-dichloro-4-hydroxyphenyl)-(2,8-diisopropyl-2,3-dihydrobenzo[1,4]oxazin-4-yl)-methanone], `O=C(O)c1cccc2c1OCCN2C(=O)c1cc(Cl)c(O)c(Cl)c1` [Example 62, 4-(3,5-dichloro-4-hydroxybenzoyl)-3,4-dihydro-2H-benzo[1,4]oxazine-8-carboxylic acid] is higher in IC50: 10 µM for the first, over 50 µM for the second. The first is the more potent here.

Compared with `CC(=O)Oc1c(Cl)cc(C(=O)N2CCOc3ccccc32)cc1Cl` [Example 87, 2,6-dichloro-4-(2,3-dihydrobenzo[1,4]oxazine-4-carbonyl)-phenyl acetate], `O=C(c1cc(Cl)c(O)c([N+](=O)[O-])c1)N1CCOc2ccccc21` [Example 31, (3-chloro-4-hydroxy-5-nitrophenyl)-(2,3-dihydrobenzo[1,4]oxazin-4-yl)-methanone] is 1.6-fold lower in IC50: 31 µM for the first, 20 µM for the second.

`CN(C)S(=O)(=O)c1ccc2c(c1)N(C(=O)c1cc(Cl)c(O)c(Cl)c1)CCO2` [Example 35, 4-(3,5-dichloro-4-hydroxybenzoyl)-3,4-dihydro-2H-benzo[1,4]oxazine-6-sulfonic acid dimethylamide] and `CCNS(=O)(=O)c1ccc2c(c1)N(C(=O)c1cc(Cl)c(O)c(Cl)c1)CCO2` [Example 34, 4-(3,5-dichloro-4-hydroxybenzoyl)-3,4-dihydro-2H-benzo[1,4]oxazine-6-sulfonic acid ethylamide] are within 1.5-fold of each other in IC50: 14 µM for the first, 11 µM for the second.

`COC(=O)c1cccc(C(=O)N2CCOc3ccccc32)c1` [Example 48, methyl 3-(2,3-dihydrobenzo[1,4]oxazine-4-carbonyl)benzoate] and `COC(=O)c1ccc(C(=O)N2CCOc3ccccc32)cc1` [Example 46, methyl 4-(2,3-dihydrobenzo[1,4]oxazine-4-carbonyl)benzoate] cannot be ordered by IC50: over 50 µM for the first, over 50 µM for the second.

Compared with `O=C(c1cc(Br)c(O)c(Br)c1)N1CCOc2ccc(F)cc21` [Example 79, (3,5-dibromo-4-hydroxyphenyl)-(6-fluoro-2,3-dihydrobenzo[1,4]oxazin-4-yl)-methanone], `O=C(c1cc(Br)c(O)c(Br)c1)N1CCOc2ccc([N+](=O)[O-])cc21` [Example 69, (3,5-dibromo-4-hydroxyphenyl)-(6-nitro-2,3-dihydrobenzo[1,4]oxazin-4-yl)-methanone] is 1.6-fold higher in IC50: 13 µM for the first, 21 µM for the second. The first is the more potent here.

`O=C(O)c1ccccc1C(=O)N1CCOc2ccccc21` [Example 45, 2-(2,3-dihydrobenzo[1,4]oxazine-4-carbonyl)benzoic acid] and `O=C(O)c1ccc(C(=O)N2CCOc3ccccc32)cc1` [Example 47, 4-(2,3-dihydrobenzo[1,4]oxazine-4-carbonyl)benzoic acid] cannot be ordered by IC50: over 50 µM for the first, over 50 µM for the second.

`Nc1ccc2c(c1)OCCN2C(=O)c1cc(Cl)c(O)c(Cl)c1` [Example 71, (7-amino-2,3-dihydrobenzo[1,4]oxazin-4-yl)-(3,5-dichloro-4-hydroxyphenyl)-methanone] and `Nc1ccc2c(c1)CCN2C(=O)c1cc(Cl)c(O)c(Cl)c1` [Example 78, (5-amino-2,3-dihydroindol-1-yl)-(3,5-dichloro-4-hydroxyphenyl)-methanone] are within 1.5-fold of each other in IC50: 15 µM for the first, 18 µM for the second.

Going from `O=C(c1cc(Cl)cc(Cl)c1)N1CCOc2ccccc21` [Example 63, (3,5-dichlorophenyl)-(2,3-dihydrobenzo[1,4]oxazin-4-yl)-methanone] to `Cc1cc(C(=O)N2CCOc3ccccc32)cc(C)c1O` [Example 7, (2,3-dihydrobenzo[1,4]oxazin-4-yl)-(4-hydroxy-3,5-dimethylphenyl)-methanone], the IC50 falls from over 50 µM to 4 µM.

First: O=C(c1cc(Cl)c(O)c(Cl)c1O)N1CCOc2ccccc21 [Example 50, (3,5-dichloro-2,4-dihydroxyphenyl)-(2,3-dihydrobenzo[1,4]oxazin-4-yl)-methanone]
Second: O=C(c1cc(Cl)c(O)c(Cl)c1)N1CCOc2ccc(F)cc21 [Example 44, (3,5-dichloro-4-hydroxyphenyl)-(6-fluoro-2,3-dihydrobenzo[1,4]oxazin-4-yl)-methanone]
The IC50 of the first is 2.1-fold lower: 15 µM for the first, 31 µM for the second. The first is the more potent here.

`O=C(c1ccc(O)c([N+](=O)[O-])c1)N1CCOc2ccccc21` [Example 75, (2,3-dihydrobenzo[1,4]oxazin-4-yl)-(4-hydroxy-3-nitrophenyl)-methanone] and `O=C(c1ccc([N+](=O)[O-])cc1)N1CCOc2ccccc21` [Example 43, (2,3-dihydrobenzo[1,4]oxazin-4-yl)-(4-nitrophenyl)-methanone] cannot be ordered by IC50: over 50 µM for the first, over 50 µM for the second.

Going from `Cc1cccc2c1N(C(=O)c1cc(Cl)c(O)c(Cl)c1)CCO2` [Example 14, (3,5-dichloro-4-hydroxyphenyl)-(5-methyl-2,3-dihydrobenzo[1,4]oxazin-4-yl)-methanone] to `O=C(c1cc(Cl)c(O)c(Cl)c1)N1CCOc2ccc3ccccc3c21` [Example 16, (3,5-dichloro-4-hydroxyphenyl)-(2,3-dihydronaphtho[2,1-b][1,4]oxazin-1-yl)-methanone], the IC50 falls from 16 µM to 10 µM (1.6-fold).

First: COC(=O)c1cccc2c1OCCN2C(=O)c1cc(Cl)c(O)c(Cl)c1 [Example 61, methyl 4-(3,5-dichloro-4-hydroxybenzoyl)-3,4-dihydro-2H-benzo[1,4]oxazine-8-carboxylate]
Second: O=C(O)c1ccc2c(c1)N(C(=O)c1cc(Cl)c(O)c(Cl)c1)CCO2 [Example 57, 4-(3,5-dichloro-4-hydroxybenzoyl)-3,4-dihydro-2H-benzo[1,4]oxazine-6-carboxylic acid]
The IC50 of the first is lower: 43 µM for the first, over 50 µM for the second.

Compared with `O=C(c1ccc(O)c(C(F)(F)F)c1)N1CCOc2ccccc21` [Example 39, (2,3-dihydrobenzo[1,4]oxazin-4-yl)-(4-hydroxy-3-trifluoromethylphenyl)-methanone], `CS(=O)(=O)Nc1ccc2c(c1)OCCN2C(=O)c1cc(Cl)c(O)c(Cl)c1` [Example 72, N-[4-(3,5-dichloro-4-hydroxybenzoyl)-3,4-dihydro-2H-benzo[1,4]oxazin-7-yl]-methanesulfonamide] is 1.6-fold lower in IC50: 21 µM for the first, 13 µM for the second.
